Measured values reported in PubChem BioAssay AID248 (DTP/NCI, 2004).
Values joined by “and” are separate entries in the source; they are usually repeats but may differ in a detail not shown here. Equal values may be shown once. Toxic doses and inconclusive results are not listed.

Tested on: L1210 leukemia ip in BDF1 mice, survival T/C
Test: NCI In Vivo Anticancer Drug Screen. Data for tumor model L1210 Leukemia (intraperitoneal) in B6D2F1 (BDF1) mice
Settings: endpoint: mean survival time, higher = longer survival
Summary of the method: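 Read-out is survival time, reported as the treated-group measurement over the vehicle-control measurement.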

O=C(Nc1ccc(C2=NCCCN2)cc1)c1ccc(NC(=O)c2ccc(C3=NCCCN3)cc2)cc1
T/C (dose: 0.03 mg/kg/injection, schedule: Q01DX Z (iv), vehicle: water): 107 % of control
T/C (dose: 0.06 mg/kg/injection, schedule: Q01DX Z (iv), vehicle: water): 102 % of control
T/C (dose: 0.12 mg/kg/injection, schedule: Q01DX Z (ip), vehicle: carboxymethylcellulose (CMC)): 102 % of control
T/C (dose: 0.12 mg/kg/injection, schedule: Q01DX Z (iv), vehicle: water): 113 % of control
T/C (dose: 0.2 mg/kg/injection, schedule: Q01DX006 (iv), vehicle: carboxymethylcellulose (CMC)): 119 % of control
T/C (dose: 0.25 mg/kg/injection, schedule: Q01DX Z (ip), vehicle: carboxymethylcellulose (CMC)): 103 % of control
T/C (dose: 0.25 mg/kg/injection, schedule: Q01DX Z (iv), vehicle: water): 94 % of control
T/C (dose: 0.4 mg/kg/injection, schedule: Q01DX006 (iv), vehicle: carboxymethylcellulose (CMC)): 113 % of control
T/C (dose: 0.5 mg/kg/injection, schedule: Q01DX Z (ip), vehicle: carboxymethylcellulose (CMC)): 107 % of control
T/C (dose: 0.5 mg/kg/injection, schedule: Q01DX Z (sc), vehicle: saline): 108 % of control
T/C (dose: 0.6 mg/kg/injection, schedule: Q01DX006 (iv), vehicle: carboxymethylcellulose (CMC)): 120 % of control
T/C (dose: 0.8 mg/kg/injection, schedule: Q01DX006 (iv), vehicle: carboxymethylcellulose (CMC)): 111 % of control
T/C (dose: 0.94 mg/kg/injection, schedule: Q01DX Z (ip), vehicle: saline): 120 % of control
T/C (dose: 1.0 mg/kg/injection, schedule: Q01DX Z (sc), vehicle: saline): 110 % of control
T/C (dose: 1.76 mg/kg/injection, schedule: Q01DX015 (ip), vehicle: carboxymethylcellulose (CMC)): 154 % of control
T/C (dose: 2.0 mg/kg/injection, schedule: Q01DX010 (ip), vehicle: other): 160 % of control and 162 % of control
T/C (dose: 2.0 mg/kg/injection, schedule: Q01DX Z (sc), vehicle: saline): 110 % of control
T/C (dose: 2.6 mg/kg/injection, schedule: Q01DX015 (ip), vehicle: carboxymethylcellulose (CMC)): 230 % of control
T/C (dose: 3.75 mg/kg/injection, schedule: Q01DX Z (ip), vehicle: saline): 245 % of control
T/C (dose: 4.0 mg/kg/injection, schedule: Q01DX010 (ip), vehicle: other): 215 % of control and 217 % of control and 251 % of control
T/C (dose: 4.0 mg/kg/injection, schedule: Q01DX015 (ip), vehicle: carboxymethylcellulose (CMC)): 305 % of control
T/C (dose: 4.0 mg/kg/injection, schedule: Q01DX Z (sc), vehicle: saline): 156 % of control and 195 % of control
T/C (dose: 6.0 mg/kg/injection, schedule: Q01DX015 (ip), vehicle: carboxymethylcellulose (CMC)): 319 % of control
T/C (dose: 8.0 mg/kg/injection, schedule: Q01DX010 (ip), vehicle: other): 245 % of control and 258 % of control and 345 % of control
T/C (dose: 8.0 mg/kg/injection, schedule: Q01DX Z (sc), vehicle: saline): 259 % of control
T/C (dose: 9.0 mg/kg/injection, schedule: Q01DX015 (ip), vehicle: carboxymethylcellulose (CMC)): 180 % of control
T/C (dose: 10.0 mg/kg/injection, schedule: Q01DX010 (sc), vehicle: saline): 106 % of control
T/C (dose: 10.0 mg/kg/injection, schedule: Q02DX004 (im), vehicle: olive oil, sesame oil, peanut oil): 154 % of control and 178 % of control
T/C (dose: 14.0 mg/kg/injection, schedule: Q01DX001 (ip), vehicle: other): 156 % of control
T/C (dose: 16.0 mg/kg/injection, schedule: Q01DX010 (ip), vehicle: other): 97 % of control and 98 % of control and 100 % of control
T/C (dose: 16.0 mg/kg/injection, schedule: Q01DX Z (sc), vehicle: carboxymethylcellulose (CMC)): 102 % of control
T/C (dose: 16.0 mg/kg/injection, schedule: Q01DX Z (sc), vehicle: saline): 124 % of control
T/C (dose: 20.0 mg/kg/injection, schedule: Q01DX001 (im), vehicle: steriod suspending solution): 110 % of control
T/C (dose: 20.0 mg/kg/injection, schedule: Q01DX010 (sc), vehicle: olive oil, sesame oil, peanut oil): 87 % of control
T/C (dose: 20.0 mg/kg/injection, schedule: Q01DX010 (sc), vehicle: saline): 87 % of control
T/C (dose: 20.0 mg/kg/injection, schedule: Q02DX004 (im), vehicle: olive oil, sesame oil, peanut oil): 250 % of control and 285 % of control
T/C (dose: 21.0 mg/kg/injection, schedule: Q01DX001 (ip), vehicle: carboxymethylcellulose (CMC)): 156 % of control
T/C (dose: 21.0 mg/kg/injection, schedule: Q01DX001 (ip), vehicle: saline): 159 % of control and 172 % of control
T/C (dose: 32.0 mg/kg/injection, schedule: Q01DX001 (ip), vehicle: carboxymethylcellulose (CMC)): 172 % of control
T/C (dose: 32.0 mg/kg/injection, schedule: Q01DX001 (ip), vehicle: other): 202 % of control
T/C (dose: 32.0 mg/kg/injection, schedule: Q01DX001 (ip), vehicle: saline): 196 % of control
T/C (dose: 40.0 mg/kg/injection, schedule: Q01DX001 (im), vehicle: steriod suspending solution): 173 % of control
T/C (dose: 40.0 mg/kg/injection, schedule: Q02DX004 (im), vehicle: olive oil, sesame oil, peanut oil): 100 % of control and 86 % of control
T/C (dose: 48.0 mg/kg/injection, schedule: Q01DX001 (ip), vehicle: carboxymethylcellulose (CMC)): 219 % of control
T/C (dose: 48.0 mg/kg/injection, schedule: Q01DX001 (ip), vehicle: saline): 243 % of control and 247 % of control
T/C (dose: 62.0 mg/kg/injection, schedule: Q01DX Z (oral), vehicle: carboxymethylcellulose (CMC)): 102 % of control
T/C (dose: 62.5 mg/kg/injection, schedule: Q01DX010 (oral), vehicle: other): 105 % of control
T/C (dose: 72.0 mg/kg/injection, schedule: Q01DX001 (ip), vehicle: saline): 103 % of control and 229 % of control
T/C (dose: 90.0 mg/kg/injection, schedule: Q#A X Z (oral), vehicle: carboxymethylcellulose (CMC)): 100 % of control
T/C (dose: 125.0 mg/kg/injection, schedule: Q01DX010 (oral), vehicle: other): 177 % of control
T/C (dose: 125.0 mg/kg/injection, schedule: Q01DX Z (oral), vehicle: carboxymethylcellulose (CMC)): 105 % of control
T/C (dose: 125.0 mg/kg/injection, schedule: Q01DX Z (oral), vehicle: saline): 92 % of control
T/C (dose: 135.0 mg/kg/injection, schedule: Q#A X Z (oral), vehicle: carboxymethylcellulose (CMC)): 91 % of control
T/C (dose: 180.0 mg/kg/injection, schedule: Q01DX Z (oral), vehicle: carboxymethylcellulose (CMC)): 108 % of control
T/C (dose: 202.5 mg/kg/injection, schedule: Q#A X Z (oral), vehicle: carboxymethylcellulose (CMC)): 115 % of control
T/C (dose: 250.0 mg/kg/injection, schedule: Q01DX010 (oral), vehicle: other): 194 % of control
T/C (dose: 250.0 mg/kg/injection, schedule: Q01DX Z (oral), vehicle: carboxymethylcellulose (CMC)): 120 % of control
T/C (dose: 250.0 mg/kg/injection, schedule: Q01DX Z (oral), vehicle: saline): 89 % of control
T/C (dose: 270.0 mg/kg/injection, schedule: Q01DX Z (oral), vehicle: carboxymethylcellulose (CMC)): 102 % of control
T/C (dose: 405.0 mg/kg/injection, schedule: Q01DX Z (oral), vehicle: carboxymethylcellulose (CMC)): 120 % of control
T/C (dose: 500.0 mg/kg/injection, schedule: Q01DX010 (oral), vehicle: other): 122 % of control
T/C (dose: 500.0 mg/kg/injection, schedule: Q01DX Z (oral), vehicle: saline): 113 % of control
T/C (dose: 540.0 mg/kg/injection, schedule: Q03DX Z (oral), vehicle: carboxymethylcellulose (CMC)): 98 % of control
T/C (dose: 800.0 mg/kg/injection, schedule: Q03DX Z (oral), vehicle: carboxymethylcellulose (CMC)): 112 % of control
T/C (dose: 1200.0 mg/kg/injection, schedule: Q03DX Z (oral), vehicle: carboxymethylcellulose (CMC)): 120 % of control
T/C (dose: 1200.0 mg/kg/injection, schedule: Q07DX Z (oral), vehicle: carboxymethylcellulose (CMC)): 95 % of control
T/C (dose: 1800.0 mg/kg/injection, schedule: Q07DX Z (oral), vehicle: carboxymethylcellulose (CMC)): 106 % of control
T/C (dose: 2700.0 mg/kg/injection, schedule: Q07DX Z (oral), vehicle: carboxymethylcellulose (CMC)): 124 % of control
